# Measured values taken from ChEMBL document CHEMBL1201862, “PubChem BioAssay data set” (2004).
# Activity calls are given as the source filed them.
# Key:
# BJ [1] = experiment: cytotoxicity toward BJ-TERT fibroblasts, dose response, cell-based, RAS-independent, luminescence (AID 1933); format: functional; details: Homo sapiens
# BJ [2] = experiment: cells; format: functional, cell-based; details: Homo sapiens
# [3] = growth suppression of PTEN-null colon cells, dose response, cell-based, HCT116 PTEN knockout (AID 1047); format: functional;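 also: HCT116 colon tumor cells with PTEN knocked out; cells exposed to compound for 60 hours before readout; potency for loss of cell viability measured by luminescence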
# [4] = growth suppression of beta-catenin-knockout colon cells, dose response, cell-based, HCT116, human colon tumor (AID 1045); format: functional;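 also: HCT116 colon tumor cells with beta catenin knocked out; cells exposed to compound for 60 hours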
# BJ [5] = experiment: cytotoxicity toward BJ-TERT-LT-ST fibroblasts, dose response, cell-based, RAS-independent, luminescence (AID 1935); format: functional; details: Homo sapiens;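 also: BJ fibroblasts immortalized with TERT plus LT and ST oncogenes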
# [6] = cytotoxicity toward DRD oncogenic fibroblasts, dose response, cell-based, non-viral oncogenic, luminescence (AID 1934); format: functional; details: Homo sapiens
# HeLa = experiment: HeLa cell cytotoxicity, dose response, cytotoxicity control, 24 h, cherry-picked samples (AID 504726); format: functional, cell-based; details: Homo sapiens;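 also: potency for cytotoxicity as loss of luminescence signal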
# [7] = molecular target: T1, Hepatocyte nuclear factor 4-alpha (Homo sapiens, UniProt P41235); format: functional, cell-based;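 also: biochemical luminescence-based dose-response counterscreen measuring inhibition of HNF4 dimerization, run alongside a screen for blockers of ABHD5–perilipin-5 interaction; split luciferase complementation of HNF4 fusion proteins in cell lysate measuring dimerization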
# T1 sequence (P41235 whole entry): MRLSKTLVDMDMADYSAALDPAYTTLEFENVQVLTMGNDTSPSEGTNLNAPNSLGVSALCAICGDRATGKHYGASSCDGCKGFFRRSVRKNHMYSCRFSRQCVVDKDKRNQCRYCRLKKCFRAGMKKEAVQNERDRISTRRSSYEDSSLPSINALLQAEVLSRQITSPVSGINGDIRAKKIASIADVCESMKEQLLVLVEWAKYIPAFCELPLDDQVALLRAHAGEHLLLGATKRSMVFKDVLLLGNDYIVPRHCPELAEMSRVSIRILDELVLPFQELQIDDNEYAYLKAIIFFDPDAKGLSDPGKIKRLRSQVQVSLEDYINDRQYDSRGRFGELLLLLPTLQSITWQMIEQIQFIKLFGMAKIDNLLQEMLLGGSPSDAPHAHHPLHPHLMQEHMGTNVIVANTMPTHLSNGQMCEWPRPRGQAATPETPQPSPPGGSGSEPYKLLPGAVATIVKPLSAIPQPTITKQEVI
# [8] = inhibitors of PGC1a acetylation in cells, dose response, cell-based, cherry-picked samples (AID 720514); format: functional;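 also: potency may reflect raised or lowered acetylation signal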
# Cytochrome P450 2C9 = Cytochrome P450 2C9 (Homo sapiens, UniProt P11712)
# Chain of Cytochrome P450 2C9 (P11712 whole entry): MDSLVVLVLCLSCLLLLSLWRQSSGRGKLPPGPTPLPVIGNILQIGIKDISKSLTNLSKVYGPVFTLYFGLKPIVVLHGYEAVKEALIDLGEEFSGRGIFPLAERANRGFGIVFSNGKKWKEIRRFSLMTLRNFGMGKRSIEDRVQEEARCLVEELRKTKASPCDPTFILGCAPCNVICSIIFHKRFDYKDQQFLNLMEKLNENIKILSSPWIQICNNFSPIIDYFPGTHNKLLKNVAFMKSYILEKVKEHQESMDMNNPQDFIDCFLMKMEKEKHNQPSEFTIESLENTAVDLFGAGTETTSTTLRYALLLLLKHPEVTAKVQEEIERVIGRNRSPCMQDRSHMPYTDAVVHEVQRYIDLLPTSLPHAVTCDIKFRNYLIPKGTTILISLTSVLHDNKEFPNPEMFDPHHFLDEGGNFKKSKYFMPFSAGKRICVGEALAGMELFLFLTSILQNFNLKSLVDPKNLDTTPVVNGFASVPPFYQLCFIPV
# [9] = molecular target: T2, Mannose-6-phosphate isomerase (Homo sapiens, UniProt P34949); experiment: inhibitors of human PMI, primary screen, biochemical, fluorescence intensity, coupled assay (AID 1209)
# T2 sequence (P34949 whole entry): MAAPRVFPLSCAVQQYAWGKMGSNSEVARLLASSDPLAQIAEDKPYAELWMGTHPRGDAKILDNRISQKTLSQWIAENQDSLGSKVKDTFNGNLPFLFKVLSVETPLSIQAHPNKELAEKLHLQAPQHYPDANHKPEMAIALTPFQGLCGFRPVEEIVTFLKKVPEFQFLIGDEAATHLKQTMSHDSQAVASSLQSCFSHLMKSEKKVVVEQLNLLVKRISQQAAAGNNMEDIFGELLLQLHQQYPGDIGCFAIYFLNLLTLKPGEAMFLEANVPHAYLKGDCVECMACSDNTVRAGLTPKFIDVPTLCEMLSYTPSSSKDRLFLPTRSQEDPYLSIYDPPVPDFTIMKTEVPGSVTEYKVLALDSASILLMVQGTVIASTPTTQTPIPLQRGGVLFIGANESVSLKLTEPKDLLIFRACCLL
# [10] = molecular target: T2, Mannose-6-phosphate isomerase; experiment: human PMI inhibitors, high substrate, primary screen, biochemical, fluorescence intensity, high mannose 6-phosphate (AID 1220)
# [11] = molecular target: DNA dC->dU-editing enzyme APOBEC-3A (Homo sapiens, UniProt P31941); experiment: APOBEC3A DNA deaminase inhibitors, dose response, biochemical (AID 504722); format: functional
# Chain of DNA dC->dU-editing enzyme APOBEC-3A (P31941 whole entry): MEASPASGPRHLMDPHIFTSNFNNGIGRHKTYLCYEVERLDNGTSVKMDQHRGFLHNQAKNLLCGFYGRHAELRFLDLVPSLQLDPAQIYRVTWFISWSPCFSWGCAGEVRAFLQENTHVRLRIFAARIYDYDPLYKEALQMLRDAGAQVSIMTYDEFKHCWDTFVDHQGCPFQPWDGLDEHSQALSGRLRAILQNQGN
# [12] = molecular target: DNA dC->dU-editing enzyme APOBEC-3G (Homo sapiens, UniProt Q9HC16); experiment: Dose Response confirmation of small molecule APOBEC3G DNA Deaminase Inhibitors via a fluorescence-based single-stranded DNA deaminase assay. [Related pubchem assays (depositor defined):AID493012, AID493028]; format: functional
# Chain of DNA dC->dU-editing enzyme APOBEC-3G (Q9HC16 whole entry): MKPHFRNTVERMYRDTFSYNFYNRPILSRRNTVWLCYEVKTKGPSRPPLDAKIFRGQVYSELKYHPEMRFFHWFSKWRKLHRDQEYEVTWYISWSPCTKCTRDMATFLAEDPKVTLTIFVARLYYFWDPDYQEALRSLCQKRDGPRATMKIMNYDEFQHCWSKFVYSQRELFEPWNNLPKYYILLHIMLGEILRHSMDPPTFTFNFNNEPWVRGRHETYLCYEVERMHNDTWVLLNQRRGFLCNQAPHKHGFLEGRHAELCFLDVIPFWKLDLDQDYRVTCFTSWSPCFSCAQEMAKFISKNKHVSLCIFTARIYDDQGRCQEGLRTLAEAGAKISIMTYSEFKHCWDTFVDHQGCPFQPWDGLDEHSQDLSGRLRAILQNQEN
# [13] = molecular target: T3, Eukaryotic translation initiation factor 2-alpha kinase 3 (Homo sapiens, UniProt Q9NZJ5); experiment: Dose response cell-based high-throughput screening assay to measure PERK inhibition. [Related pubchem assays: 1416 ]; format: functional
# T3 sequence (Q9NZJ5 whole entry): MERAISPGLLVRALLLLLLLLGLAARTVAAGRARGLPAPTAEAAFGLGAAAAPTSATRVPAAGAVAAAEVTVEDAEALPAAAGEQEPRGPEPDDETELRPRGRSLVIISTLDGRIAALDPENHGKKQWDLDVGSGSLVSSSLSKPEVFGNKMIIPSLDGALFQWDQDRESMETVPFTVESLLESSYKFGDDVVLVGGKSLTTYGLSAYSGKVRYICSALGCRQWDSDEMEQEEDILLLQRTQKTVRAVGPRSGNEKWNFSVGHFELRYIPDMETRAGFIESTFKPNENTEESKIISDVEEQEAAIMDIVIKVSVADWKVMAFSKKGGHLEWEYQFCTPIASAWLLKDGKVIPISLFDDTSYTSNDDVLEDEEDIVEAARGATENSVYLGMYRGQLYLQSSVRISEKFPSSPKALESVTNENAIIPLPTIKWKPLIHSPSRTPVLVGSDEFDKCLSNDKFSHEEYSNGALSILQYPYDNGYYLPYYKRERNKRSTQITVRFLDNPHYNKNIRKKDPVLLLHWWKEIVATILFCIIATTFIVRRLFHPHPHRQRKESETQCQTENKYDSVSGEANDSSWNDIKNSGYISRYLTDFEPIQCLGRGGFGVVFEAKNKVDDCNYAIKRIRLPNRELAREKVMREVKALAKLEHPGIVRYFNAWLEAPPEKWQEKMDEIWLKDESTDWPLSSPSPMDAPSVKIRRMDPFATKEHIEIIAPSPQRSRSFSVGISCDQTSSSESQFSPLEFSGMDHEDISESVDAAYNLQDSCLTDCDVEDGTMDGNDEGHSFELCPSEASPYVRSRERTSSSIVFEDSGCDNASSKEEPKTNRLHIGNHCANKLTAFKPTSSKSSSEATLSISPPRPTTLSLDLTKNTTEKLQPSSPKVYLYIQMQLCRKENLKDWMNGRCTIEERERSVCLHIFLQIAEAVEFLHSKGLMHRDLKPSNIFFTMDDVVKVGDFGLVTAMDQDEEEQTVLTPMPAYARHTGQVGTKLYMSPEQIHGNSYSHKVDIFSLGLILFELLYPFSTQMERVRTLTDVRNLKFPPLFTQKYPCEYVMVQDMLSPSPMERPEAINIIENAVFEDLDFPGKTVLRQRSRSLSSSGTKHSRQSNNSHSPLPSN
# [14] = molecular target: T3, Eukaryotic translation initiation factor 2-alpha kinase 3; experiment: Counterscreen assay for PERK inhibitors: Dose response cell-based high throughput screening assay to measure inhibition of PERK at 6 hours. [Related pubchem assays: 1522, 1416 ]; format: functional
# [15] = molecular target: Cyclin-dependent kinase 5/CDK5 activator 1 (Homo sapiens, UniProt Q00535); experiment: CDK5/p35 kinase inhibitors, dose response, biochemical, cherry-picked samples, set 2 (AID 504545)
# Chain of Cyclin-dependent kinase 5/CDK5 activator 1 (Q00535 whole entry): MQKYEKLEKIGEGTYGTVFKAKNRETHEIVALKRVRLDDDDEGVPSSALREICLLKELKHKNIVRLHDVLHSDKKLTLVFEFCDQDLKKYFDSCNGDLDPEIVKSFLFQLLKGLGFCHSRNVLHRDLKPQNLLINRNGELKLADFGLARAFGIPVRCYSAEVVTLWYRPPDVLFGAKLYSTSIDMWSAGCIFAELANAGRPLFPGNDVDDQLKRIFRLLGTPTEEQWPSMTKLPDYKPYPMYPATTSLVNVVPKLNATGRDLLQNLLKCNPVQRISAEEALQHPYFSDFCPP
# Chain of Cyclin-dependent kinase 5/CDK5 activator 1 (Q15078 whole entry, further chain): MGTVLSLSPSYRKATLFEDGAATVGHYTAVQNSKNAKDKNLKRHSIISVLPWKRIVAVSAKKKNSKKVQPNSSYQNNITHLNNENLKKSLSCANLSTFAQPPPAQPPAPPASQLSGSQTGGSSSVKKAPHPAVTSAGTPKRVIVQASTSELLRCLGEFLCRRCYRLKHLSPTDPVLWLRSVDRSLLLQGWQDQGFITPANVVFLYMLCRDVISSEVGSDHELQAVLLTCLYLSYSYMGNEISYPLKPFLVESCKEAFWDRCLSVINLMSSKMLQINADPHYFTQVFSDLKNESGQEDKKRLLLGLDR
# [16] = molecular target: Dual specificity tyrosine-phosphorylation-regulated kinase 1A (Rattus norvegicus, UniProt Q63470); format: biochemical, Homo sapiens
# [17] = Shn3 3'UTR reporter inhibitors, dose response, cell-based, Clone20 osteoblasts, firefly luciferase, cherry-picked (AID 624132); format: functional;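 also: firefly luciferase luminescence from reporter carrying the Shn3 3'UTR in osteoblasts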
# [18] = HepG2 cell cytotoxicity, dose response, cytotoxicity control for Shn3 inhibitor project, CellTiter-Glo, cherry-picked (AID 624134); format: functional, cell-based
# [19] = control 3'UTR Renilla luciferase suppression, dose response, counter-screen for Shn3 inhibitor project, cell-based, Clone20-Shn3RL, cherry-picked (AID 624133); format: functional
smiles,measurement,setting,value
CCC(=O)Nc1cccc(C(=O)/C=C/c2ccccc2)c1,EC50,BJ [1],9.74 µM (inconclusive)
same,EC50,BJ [2],26 µM (active)
same,EC50,[3],2.4 µM (active)
same,EC50,[4],2.34 µM (active)
same,EC50,BJ [5],20.9 µM (inconclusive)
same,EC50,[6],11.2 µM (active)
same,AC50,HeLa,23.6 µM (active)
same,IC50,[7],2.86 µM (active)
same,AC50,[8],14.2 µM (active)
same,AC50,Cytochrome P450 2C9,inconclusive
CC1(C)Cc2c(sc3ncn4c(S)nnc4c23)CO1,IC50,[9],> 50 µM (not active)
same,IC50,[10],> 50 µM (not active)
same,IC50,[11],> 100 µM (inactive)
same,IC50,[12],3.8 µM (active)
O=C(O)c1ccc(C[S+]([O-])c2cccc(C(F)(F)F)c2)o1 (stereo not drawn),EC50,[13],> 55.7 µM (not active)
same,EC50,[14],> 55.7 µM (not active)
CCOC(=O)c1c(C)noc1-c1ccc(Br)o1,EC50,[13],> 55.7 µM (not active)
same,EC50,[14],> 55.7 µM (not active)
Cc1[nH]nc2c1-c1nc3ccccc3nc1C(C)(C)C2,AC50,[15],14.7 µM (active)
same,AC50,[16],2.38 µM (active)
same,AC50,[17],4.2 µM (active)
same,AC50,[18],24.4 µM (active)
same,AC50,[19],9.03 µM (active)
